Columns and labels:
[1] = cited from earlier work
GLUT4 [2] = target: T1, GLUT4 (Rattus norvegicus, UniProt P19357); settings: primary rat adipocytes (Murata, Hruz et al.); read-out: Ki, reversible non-competitive GLUT4 inhibition; cited from earlier work
T1 construct: host or cells: primary rat adipocytes
T1 sequence (P19357 1-509): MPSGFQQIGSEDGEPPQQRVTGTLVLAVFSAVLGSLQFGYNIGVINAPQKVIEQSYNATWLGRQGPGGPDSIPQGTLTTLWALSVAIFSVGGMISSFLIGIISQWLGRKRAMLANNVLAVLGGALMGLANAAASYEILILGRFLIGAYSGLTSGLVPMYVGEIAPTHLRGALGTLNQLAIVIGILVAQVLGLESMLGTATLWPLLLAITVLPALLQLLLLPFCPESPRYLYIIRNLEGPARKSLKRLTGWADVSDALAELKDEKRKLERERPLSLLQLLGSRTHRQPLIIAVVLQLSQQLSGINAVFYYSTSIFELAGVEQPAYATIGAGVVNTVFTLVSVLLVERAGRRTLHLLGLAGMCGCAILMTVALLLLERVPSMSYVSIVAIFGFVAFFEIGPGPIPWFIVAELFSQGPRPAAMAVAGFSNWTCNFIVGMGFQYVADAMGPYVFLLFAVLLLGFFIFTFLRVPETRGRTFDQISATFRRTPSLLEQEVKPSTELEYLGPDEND

GLUT4 [3] = assay: Immunostaining / confocal microscopy of GLUT4 subcellular localization in MM.1S cells; assay type: cell-based, human; settings: 3 μM 8-NH2-Ado, 5 hours, aggregation of GLUT4 within the trans-golgi network
Experimental: (§1) (A) Measurement of glucose consumed by MM.1S cells treated with 3 μM 8-NH2-Ado for 5 hours. Data are means±SEM (n=3). (B) MM.1S cells were treated for the indicated number of hours with 3 μM 8-NH2-Ado or not (C) prior to lysis and immunoblot analysis of GLUT1 and GLUT4 expression. (C) Immunostaining of GLUT1 and GLUT4 in MM.1S cells treated with 3 μM 8 NH2-Ado for 5 hours. Arrow indicates intracellular aggregation of GLUT4.
To explore mechanisms underlying the decrease in glucose consumption elicited by 8-NH2-Ado in the MM.1S cell line, we examined the regulation of glucose transporters that regulate the primary rate limiting step in glycolysis (Rodriguez-Enriquez, Marin-Hernandez et al. 2009). We examined expression and subcellular localization of GLUT1 and GLUT4, two highly expressed glucose transporters in B lymphocytes. Despite a 40% decline in glucose consumption rates within the first five hours of treatment (FIG. 1A), no substantial changes in GLUT1 or GLUT4 expression levels are observed at this time (FIG. 1B). The expression of both GLUT1 and 4 are diminished by 24 hours, potentially contributing to the further decline in glucose transport rates seen between 5 and 17 hours. Since the activity of these proteins depends upon insertion into the plasma membrane, we next evaluated subcellular distribution by immunofluorescence confocal microscopy (FIG. 1C). […]

MM.1S cells = assay: Glucose consumption of MM.1S cells treated with 8-NH2-Ado; assay type: cell-based, human; settings: 3 μM 8-NH2-Ado, within the first five hours of treatment
Experimental: as §1
Our laboratory has worked extensively on defining the mechanism of action of purine analogues 8-amino-adenosine (8-NH2-Ado) and 8-chloro-adenosine (Gandhi, Ayres et al. 2001; Krett, Davies et al. 2004; Ghias, Ma et al. 2005). In our recent publication (Shanmugam, McBrayer et al. 2009) we report that 8-NH2-Ado targets cellular metabolism by inducing a rapid decline in glucose consumption, the magnitude of which correlates with toxicity in various myeloma cell lines.
To explore mechanisms underlying the decrease in glucose consumption elicited by 8-NH2-Ado in the MM.1S cell line, we examined the regulation of glucose transporters that regulate the primary rate limiting step in glycolysis (Rodriguez-Enriquez, Marin-Hernandez et al. 2009). […] Since the activity of these proteins depends upon insertion into the plasma membrane, we next evaluated subcellular distribution by immunofluorescence confocal microscopy (FIG. 1C). […]

U266 myeloma cells = assay: Doxorubicin cell death in U266 cells in 11 or 0.5 mM glucose medium (flow cytometry, DAPI staining); assay type: cell-based, human; settings: 0.5 mM vs 11 mM glucose medium, 48 hours
Experimental: (A) Primary normal B lymphocytes and CD138+ cells isolated from an MM patient and L363 cells were cultured in medium containing 0 or 5 mM glucose for 48 (NBL, L363) or 72 (MM Patient) hours. Cell viability was determined by flow cytometric analysis of AnnexinV/DAPI staining and normalized to 5 mM samples. Data are means±SEM (n=2). (B) Indicated cells were cultured as in (A) with various concentrations of glucose for 72 hours. Viable cell quantities were determined by MTS assay and normalized to 5 mM samples. Data are means±SEM. (C) U266 myeloma cells were cultured in 11 or 0.5 mM glucose-containing medium for 48 hours in the presence of the indicated concentrations of doxorubicin. Cell death was determined by flow cytometric analysis of DAPI staining. Data are means±SEM. *p<0.05 **p<0.01.
Glucose Deprivation Attenuates Proliferation, Viability and Chemoresistance of Myeloma Cells. To independently ascertain the contribution of glucose in maintaining myeloma cell proliferation and survival we cultured L363 myeloma cells, normal B lymphocytes (NBL), and primary MM cells in medium containing either a physiological glucose concentration (5 mM) or medium devoid of glucose and assessed the impact on cellular viability (FIG. 2 A). Under these conditions, greater than 95% of L363 cells and 50% of the primary MM cells undergo apoptosis while the viability of normal cells is not impacted. […]

[4] = epirubicin plus lonidamine vs epirubicin alone; did not reach statistical significance; cited from earlier work
[5] = test system: KMS11 stable cell lines expressing GLUT1; assay: Glucose consumption in stable KMS11 cell lines expressing GLUT1 or control, treated with ritonavir; assay type: cell-based, human; settings: KMS11 stable line expressing GLUT1, 5 hours
Experimental: (§2) (A) KMS11 and (B) L363 cells were plated in 5 mM glucose medium with ritonavir or DMSO (D) for 17 hours. Glucose consumption rates are normalized to untreated cells (not shown). (C) KMS11 and (D) L363 cells were treated with ritonavir or DMSO for 12 hours. Relative viable cell numbers were determined by MTS assay and normalized to untreated cells (not shown). (E) KMS11 and (F) L363 cells were treated with 20 μM ritonavir with or without 0.075 (KMS11) and 0.025 μM (L363) doxorubicin or the combination for 72 hrs and cellular viability assessed by AnnexinV/DAPI staining. (G) Stable KMS11 cell lines were generated expressing empty vector or GLUT1 and GLUT1 levels were assessed by immunoblot. Representative blot is shown. N.S. indicates non-specific band. (H) Stable cell lines from part G were treated with DMSO or ritonavir (Rit) for 5 hours and glucose consumption was assessed. (1) Cell proliferation was measured in the stable cell lines described in part G treated with ritonavir (Rit) or DMSO for 72 hours. A representative experiment is shown. (J) Cell proliferation rates from multiple experiments represented by part G are normalized to DMSO-treated cells. (K) Primary myeloma cells were treated with DMSO or ritonavir for 72 hours before AnnexinV/DAPI staining. Values are normalized to DMSO-treated samples (n=1 for each patient sample). Data are means±SEM with n≧3. *P<0.05 **P<0.01 ***P<0.005.

[6] = humans (Hsu, Granneman et al. 1997); cited from earlier work
[7] = test system: KMS11 stable cell lines expressing GLUT1; assay: Cell proliferation in stable KMS11 cell lines expressing GLUT1 or control, treated with ritonavir; assay type: cell-based, human; settings: KMS11 stable line expressing GLUT1, 72 hours
Experimental: as §2

KMS11 cells [8] = assay: Glucose consumption rate with ritonavir, KMS11; assay type: cell-based, human; settings: KMS11, 5 mM glucose medium, 17 hours
Experimental: as §2

primary myeloma cells = assay: Cytotoxicity of ritonavir towards primary myeloma cells (AnnexinV/DAPI staining); assay type: cell-based, human; settings: 20 μM ritonavir, 72 hours
Experimental: as §2

L363 cells [9] = assay: Relative viable cell number by MTS assay with ritonavir, L363; assay type: cell-based, human
Experimental: as §2

L363 cells [10] = assay: Glucose consumption rate with ritonavir, L363; assay type: cell-based, human; settings: L363, 5 mM glucose medium, 17 hours
Experimental: as §2

KMS11 cells [11] = assay: Relative viable cell number by MTS assay with ritonavir, KMS11; assay type: cell-based, human
Experimental: as §2

L363 cells [12] = assay: Ritonavir with or without doxorubicin, viability by AnnexinV/DAPI staining, L363; assay type: cell-based, human; settings: L363, 20 μM ritonavir with 0.025 μM doxorubicin, 72 hrs
Experimental: as §2

KMS11 cells [13] = assay: Ritonavir with or without doxorubicin, viability by AnnexinV/DAPI staining, KMS11; assay type: cell-based, human; settings: KMS11, 20 μM ritonavir with 0.075 μM doxorubicin, 72 hrs
Experimental: as §2

[14] = 2DG and docetaxel, evaluable pool of 18 patients

O=CC[C@@H](O)[C@H](O)[C@H](O)CO [2DG]
adverse event noted in multiple patients ([1]; 2DG and docetaxel phase I trial): Grade 3 hyperglycemia | cases of disease stabilization [1, 14]: six | partial response [1, 14]: one

CC(C)(C)NC(=O)[C@@H]1CN(Cc2cccnc2)CCN1C[C@@H](O)C[C@@H](Cc1ccccc1)C(=O)N[C@H]1c2ccccc2C[C@H]1O [indinavir]
Ki (GLUT4 [2]): 15 µM

Nc1ncnc2c1nc(N)n2[C@@H]1O[C@H](CO)[C@@H](O)[C@H]1O [8-NH2-Ado, 8-amino-adenosine]
basal cell surface localization of GLUT4 (GLUT4 [3]): reduces this basal cell surface localization of GLUT4 | decline in glucose consumption rates (MM.1S cells): 40%

COc1cccc2c1C(=O)c1c(O)c3c(c(O)c1C2=O)C[C@@](O)(C(=O)CO)C[C@@H]3O[C@H]1C[C@H](N)[C@H](O)[C@H](C)O1 [doxorubicin]
sensitivity to doxorubicin under glucose-limiting conditions (U266 myeloma cells): significantly greater sensitivity

O=C(O)c1nn(Cc2ccc(Cl)cc2Cl)c2ccccc12 [lonidamine]
increase in overall response rate [4]: 9%

CC(C)c1nc(CN(C)C(=O)N[C@H](C(=O)N[C@@H](Cc2ccccc2)C[C@H](O)[C@H](Cc2ccccc2)NC(=O)OCc2cncs2)C(C)C)cs1 [ritonavir]
effect of GLUT1 expression on ritonavir-induced glucose transport inhibition [5]: completely mitigated | peak plasma level routinely achieved in humans [6]: ~20 µM | effect of GLUT1 expression on response to prolonged ritonavir treatment (proliferation) [7]: robust resistance | glucose transport (glucose consumption rate) (KMS11 cells [8]): dose-dependent abrogation | cell death induction in patient samples (primary myeloma cells): a range of cell death induction | proliferation (relative viable cell numbers, MTS) (L363 cells [9]): dose-dependent abrogation | glucose transport (glucose consumption rate) (L363 cells [10]): dose-dependent abrogation | proliferation (relative viable cell numbers, MTS) (KMS11 cells [11]): dose-dependent abrogation | sensitization to doxorubicin (L363 cells [12]): recapitulates the doxorubicin-sensitizing effects of glucose limitation | sensitization to doxorubicin (KMS11 cells [13]): recapitulates the doxorubicin-sensitizing effects of glucose limitation

— patent US9207243B2, “Use of GLUT4 inhibitors and DNA damaging agents for treating multiple myeloma” (Northwestern University, priority 2011, dated 2015)
